Results published in patent publication US9980943B2, “Methods of treating muscular dystrophy” (BOARD OF REGENTS OF THE NEVADA SYSTEM OF HIGHER EDUCATION, …, priority 2013, dated 2018).

What was measured:
Type in all cases: cell-based, mouse
[1] = system: α7 integrin (LacZ reporter in α7βgal+/− myoblasts); assay: Myoblast α7+/LacZ integrin FDG assay (Burkin assay in myoblasts, 96-well); conditions: α7+/LacZ myoblasts, 96-well
[2] = system: α7 integrin (LacZ reporter in α7+/LacZ myotubes); assay: Myotube α7 integrin FDG assay (Burkin assay in myotubes, 96-well); conditions: myotubes
[3] = system: β-galactosidase in CMV-LacZ C2C12 myotubes; assay: CMV-LacZ secondary screen in C2C12 myotubes (β-Gal stabilizing assay); conditions: for CMV-LACZ in Myotubes (β-galactosidase activity relative to DMSO): CMV-LacZ C2C12 myotubes, 96-well format
Procedure, shortened: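 CMV-LacZ C2C12 line (clonal, FDG-screened); myoblasts/myotubes dosed 0.5–40 μM (0.5, 1, 5, 10, 20, 40 μM); n=2 per point; β-gal stabilization read-out.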

[4] = 5 uM, C2C12 CMV-LacZ myotubes, fold relative to DMSO
[5] = 10 uM, C2C12 CMV-LacZ myotubes, fold relative to DMSO
[6] = 20 uM, C2C12 CMV-LacZ myotubes, fold relative to DMSO
[7] = 40 uM, C2C12 CMV-LacZ myotubes, fold relative to DMSO

SMILES	Burkin Assay in Myoblasts, value relative to DMSO ([1]; 0.5 uM)	Burkin Assay in Myoblasts, value relative to DMSO ([1]; 1 uM)	Burkin Assay in Myoblasts, value relative to DMSO ([1]; 5 uM)	Burkin Assay in Myoblasts, value relative to DMSO ([1]; 10 uM)	Burkin Assay in Myoblasts, value relative to DMSO ([1]; 20 uM)	Burkin Assay in Myoblasts, value relative to DMSO ([1]; 40 uM)	Burkin Assay in Myotubes (signal relative to DMSO) ([2]; 0.5 uM)	Burkin Assay in Myotubes (signal relative to DMSO) ([2]; 1 uM)	Burkin Assay in Myotubes (signal relative to DMSO) ([2]; 5 uM)	Burkin Assay in Myotubes (signal relative to DMSO) ([2]; 10 uM)	Burkin Assay in Myotubes (signal relative to DMSO) ([2]; 20 uM)	Burkin Assay in Myotubes (signal relative to DMSO) ([2]; 40 uM)	CMV-LACZ in Myotubes, signal relative to DMSO [3, 4]	CMV-LACZ in Myotubes, signal relative to DMSO [3, 5]	CMV-LACZ in Myotubes, signal relative to DMSO [3, 6]	CMV-LACZ in Myotubes, signal relative to DMSO [3, 7]	other results
COc1cc(CNCc2ccc(C(=O)O)cc2)ccc1OCc1ccc(F)cc1.Cl [MLS001216405-01]	1.132	0.9785	0.9945	0.9208	0.9202	0.7667	1.128	0.9927	1.124	0.9642	0.9387	0.8706	0.9192	0.8008	1.345	1.08	
CC(=O)Nc1ccc(N(C(=O)c2cnccn2)C(C(=O)NC2CCCCC2)c2ccc(F)cc2)cc1 (centres unmarked) [MLS001225507-01]													1.04	0.994	0.8655	0.8805	Burkin Assay in Myoblasts, signal relative to DMSO ([1]; 0.5 uM): 1.0374; Burkin Assay in Myoblasts, signal relative to DMSO ([1]; 1 uM): 0.9444; Burkin Assay in Myoblasts, signal relative to DMSO ([1]; 5 uM): 0.9036; Burkin Assay in Myoblasts, signal relative to DMSO ([1]; 10 uM): 0.8292; Burkin Assay in Myoblasts, signal relative to DMSO ([1]; 20 uM): 0.8685; Burkin Assay in Myoblasts, signal relative to DMSO ([1]; 40 uM): 0.888; Burkin Assay in Myotubes, α7 integrin LacZ reporter signal relative to DMSO ([2]; 0.5 uM): 0.9321; Burkin Assay in Myotubes, α7 integrin LacZ reporter signal relative to DMSO ([2]; 1 uM): 0.6741; Burkin Assay in Myotubes, α7 integrin LacZ reporter signal relative to DMSO ([2]; 5 uM): 1.013; Burkin Assay in Myotubes, α7 integrin LacZ reporter signal relative to DMSO ([2]; 10 uM): 1.002; Burkin Assay in Myotubes, α7 integrin LacZ reporter signal relative to DMSO ([2]; 20 uM): 1.175; Burkin Assay in Myotubes, α7 integrin LacZ reporter signal relative to DMSO ([2]; 40 uM): 0.9539
Cc1nnc(NC(=O)CSc2nnc(CCNC(=O)c3ccccc3F)n2C)s1 [MLS001217045-01]	0.881	0.9697	1.087	1.112	1.057	1.109	1.001	1.156	0.94	1.154	1.115	1.051					CMV-LACZ in Myotubes (β-galactosidase activity relative to DMSO) ([3]; 5 uM): 0.9613; CMV-LACZ in Myotubes (β-galactosidase activity relative to DMSO) ([3]; 10 uM): 0.9821; CMV-LACZ in Myotubes (β-galactosidase activity relative to DMSO) ([3]; 20 uM): 0.9272; CMV-LACZ in Myotubes (β-galactosidase activity relative to DMSO) ([3]; 40 uM): 0.9127
COC(=O)c1ccc(C2C(C(=O)c3cc4ccccc4o3)=C(O)C(=O)N2CCN2CCOCC2)cc1 (centres unmarked) [MLS001146463-01]	1.026	0.9781	0.9027	0.9293	0.7318	0.8061	0.8827	0.8032	1.216	0.7514	0.8465	0.8424	1.074	0.9392	1.06	1.141	
COc1ccc(N2CCCC2)c(NC(=O)c2ccc([N+](=O)[O-])o2)c1 [MLS001221619-01]	0.6855	0.7633	0.7367	0.6764	0.9648	0.8976	0.826	0.9557	0.944	1.012	0.8603	1.034					CMV-LACZ in Myotubes (β-galactosidase activity relative to DMSO) ([3]; 5 uM): 1.172; CMV-LACZ in Myotubes (β-galactosidase activity relative to DMSO) ([3]; 10 uM): 1.321; CMV-LACZ in Myotubes (β-galactosidase activity relative to DMSO) ([3]; 20 uM): 1.513; CMV-LACZ in Myotubes (β-galactosidase activity relative to DMSO) ([3]; 40 uM): 1.781
CC1(C)CC(=O)C=C(Nc2ccc(C(=O)O)c(O)c2)C1 [MLS001198693-01]													1.092	0.9258	1.025	1.112	Burkin Assay in Myoblasts, signal relative to DMSO ([1]; 0.5 uM): 0.9617; Burkin Assay in Myoblasts, signal relative to DMSO ([1]; 1 uM): 0.5426; Burkin Assay in Myoblasts, signal relative to DMSO ([1]; 5 uM): 0.9229; Burkin Assay in Myoblasts, signal relative to DMSO ([1]; 10 uM): 0.9137; Burkin Assay in Myoblasts, signal relative to DMSO ([1]; 20 uM): 0.9351; Burkin Assay in Myoblasts, signal relative to DMSO ([1]; 40 uM): 0.9164; Burkin Assay in Myotubes, α7 integrin LacZ reporter signal relative to DMSO ([2]; 0.5 uM): 0.96; Burkin Assay in Myotubes, α7 integrin LacZ reporter signal relative to DMSO ([2]; 1 uM): 0.9048; Burkin Assay in Myotubes, α7 integrin LacZ reporter signal relative to DMSO ([2]; 5 uM): 1.011; Burkin Assay in Myotubes, α7 integrin LacZ reporter signal relative to DMSO ([2]; 10 uM): 0.9514; Burkin Assay in Myotubes, α7 integrin LacZ reporter signal relative to DMSO ([2]; 20 uM): 0.9319; Burkin Assay in Myotubes, α7 integrin LacZ reporter signal relative to DMSO ([2]; 40 uM): 1.116
COc1cc(C)c(NC(=O)COc2ccc3c(c2)OCO3)cc1C [MLS001223425-01]																	fold induction at 0.5 µM ([1]; Mus musculus, Myoblast, 48 h, 0.5 uM, read-out: Burkin Assay in Myoblasts, signal relative to DMSO): 1.06; fold induction at 1 µM ([1]; Mus musculus, Myoblast, 48 h, 1 uM, read-out: Burkin Assay in Myoblasts, signal relative to DMSO): 1.08; fold induction at 5 µM ([1]; Mus musculus, Myoblast, 48 h, 5 uM, read-out: Burkin Assay in Myoblasts, signal relative to DMSO): 1.06; fold induction at 10 µM ([1]; Mus musculus, Myoblast, 48 h, 10 uM, read-out: Burkin Assay in Myoblasts, signal relative to DMSO): 1.15; fold induction at 20 µM ([1]; Mus musculus, Myoblast, 48 h, 20 uM, read-out: Burkin Assay in Myoblasts, signal relative to DMSO): 1.22; fold induction at 40 µM ([1]; Mus musculus, Myoblast, 48 h, 40 uM, read-out: Burkin Assay in Myoblasts, signal relative to DMSO): 1.13; fold induction at 0.5 µM ([2]; Mus musculus, Myotube, 0.5 uM, read-out: Burkin Assay in Myotubes, α7 integrin LacZ reporter signal relative to DMSO): 1.08; fold induction at 1 µM ([2]; Mus musculus, Myotube, 1 uM, read-out: Burkin Assay in Myotubes, α7 integrin LacZ reporter signal relative to DMSO): 1.22; fold induction at 5 µM ([2]; Mus musculus, Myotube, 5 uM, read-out: Burkin Assay in Myotubes, α7 integrin LacZ reporter signal relative to DMSO): 0.914; fold induction at 10 µM ([2]; Mus musculus, Myotube, 10 uM, read-out: Burkin Assay in Myotubes, α7 integrin LacZ reporter signal relative to DMSO): 1.38; fold induction at 20 µM ([2]; Mus musculus, Myotube, 20 uM, read-out: Burkin Assay in Myotubes, α7 integrin LacZ reporter signal relative to DMSO): 1.14; fold induction at 40 µM ([2]; Mus musculus, Myotube, 40 uM, read-out: Burkin Assay in Myotubes, α7 integrin LacZ reporter signal relative to DMSO): 1.18; fold induction at 5 µM ([3]; Mus musculus, C2C12, read-out: CMV-LACZ in Myotubes, signal relative to DMSO, 5 uM, C2C12 CMV-LacZ myotubes, fold relative to DMSO): 0.956; fold induction at 10 µM ([3]; Mus musculus, C2C12, read-out: CMV-LACZ in Myotubes, signal relative to DMSO, 10 uM, C2C12 CMV-LacZ myotubes, fold relative to DMSO): 1.04; fold induction at 20 µM ([3]; Mus musculus, C2C12, read-out: CMV-LACZ in Myotubes, signal relative to DMSO, 20 uM, C2C12 CMV-LacZ myotubes, fold relative to DMSO): 0.979; fold induction at 40 µM ([3]; Mus musculus, C2C12, read-out: CMV-LACZ in Myotubes, signal relative to DMSO, 40 uM, C2C12 CMV-LacZ myotubes, fold relative to DMSO): 1.01
CC(Oc1ccccc1)C(=O)N1CCN(C(=O)C(C)Oc2ccccc2)CC1 (centres unmarked) [MLS001162337-01]	1.123	1.127	1.091	1.071	0.8789	0.8149	0.6986	0.885	1.009	0.9738	1.17	1.014	0.9904	0.9593	0.8491	1.05	
